From US6300501A, “Histidine-(N-benzyl glycinamide) inhibitors of protein farnesyl transferase” (Warner-Lambert Company, priority 1998, dated 2001)
pIC50: −log10 of the molar value. Like-named read-outs stand apart in the source and are kept apart here.

Tests used:
[1] = biological target: T1, SF9 affinity purified rat farnesyl protein transferase (Rattus norvegicus, UniProt Q02293+Q04631); test: PFT inhibitory activity (radiolabeled farnesyl pyrophosphate, streptavidin bead assay); type: biochemical
T1 construct: made in house; host or cells: Sf9 insect cells (baculovirus system inferred from b7)
Method in brief: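 HEPES pH 7.4 with 5 mM potassium phosphate (also run without), 20 μM ZnCl2, 5 mM DTT, 5 mM MgCl2, 0.1% PEG 8000; [3H]farnesyl pyrophosphate 134 nM and biotinyl-Ahe-TKCVIM peptide 0.2 μM final. Incubated 30 min at 30° C, stopped with acidic magnesium acetate/streptavidin bead buffer; bead-bound radioactivity counted.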

[2] = system: ras farnesylation in ras-transformed cells; test: Gel shift assay; type: cell-based; details: ras-transformed cells, 18-hour incubation; read-out: Gel Shift (μM) MED (minimal effective dose to observe inhibition of ras farnesylation)
Method in brief: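 Ras-transformed cells (2×10^6 per condition) treated with farnesylation inhibitor at varying concentrations for 18 h. Ras immunoprecipitated from lysates with Y13-259, resolved on 14% SDS gels and detected by pan-ras Western blot with ECL, farnesylated and unfarnesylated ras separating by mobility shift.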

[3] = system: H61 cells: NIH transformed 3T3 H-ras cells; test: Clonogenic assay (6 well plates, soft agar); type: cell-based; details: colonies counted after Day 13, read-out: Clonogenic Assay IC50
Method in brief: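 Soft-agar colony formation: cells seeded in 0.3% agar top layer with 20% calf serum over a 0.6% agar base, drug or DMSO added at 4 µL per mL agar/medium. Incubated at 37 °C, 5% CO2; INT (1 mg/mL) added on day 13 to stain colonies.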

[4] = HEPES buffer pH 7.4, without 5 mM potassium phosphate, read-out: IC50 (μM) Hepes
[5] = HEPES buffer pH 7.4 containing 5 mM potassium phosphate, read-out: IC50 (μM) 5 mM K3 PO4 -2

T1 sequence (Q02293 whole entry, one chain of several): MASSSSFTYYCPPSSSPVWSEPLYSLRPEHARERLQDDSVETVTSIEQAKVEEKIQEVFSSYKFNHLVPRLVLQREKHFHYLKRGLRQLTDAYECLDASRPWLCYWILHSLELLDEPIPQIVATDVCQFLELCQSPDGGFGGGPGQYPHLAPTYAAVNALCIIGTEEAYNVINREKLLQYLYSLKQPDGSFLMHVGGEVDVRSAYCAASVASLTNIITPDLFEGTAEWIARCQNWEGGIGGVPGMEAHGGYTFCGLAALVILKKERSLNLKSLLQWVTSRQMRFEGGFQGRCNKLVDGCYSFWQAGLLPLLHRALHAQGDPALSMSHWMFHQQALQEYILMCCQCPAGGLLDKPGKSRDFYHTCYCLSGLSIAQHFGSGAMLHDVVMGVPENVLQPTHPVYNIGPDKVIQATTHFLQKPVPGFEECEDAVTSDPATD

Row | IC50 [1, 4] [µM] | IC50 [1, 5] [µM] | SMILES | minimal effective concentration [2] [µM] | pIC50 [3] | pIC50 ([3]; 312 h)
1 | 2.1 | 0.009 | COc1cccc(CN(CC(=O)NCC(C)c2ccccc2)C(=O)[C@H](Cc2c[nH]cn2)NC(=O)OCc2ccccc2)c1 (stereo partly drawn) [Example 35, (S)-(2-(1H-Imidazole-4-yl)-1-{(3-methoxy-benzyl)-[(2-phenyl-propylcarbamoyl)-methyl]-carbamoyl}-ethyl)-carbamic Acid Benzyl Ester] | 0.2 | – | < 6.00
2 | 0.45 | 0.007 | CC(CNC(=O)CN(Cc1ccc(OCc2cccnc2)cc1)C(=O)[C@H](Cc1c[nH]cn1)NC(=O)OCc1ccccc1)c1ccccc1 (stereo partly drawn) [Example 36, (S)-(2-(1H-Imidazole-4-yl)-1-{[(2-phenyl-propylcarbamoyl)-methyl]-[4-(pyridin-3-ylmethoxy)-benzyl]-carbamoyl}-ethyl)-carbamic Acid Benzyl Ester] | ≥ 0.05 | – | 6.49
3 | 1.6 | 0.013 | CC(CNC(=O)CN(Cc1ccc(C(F)(F)F)cc1)C(=O)[C@H](Cc1c[nH]cn1)NC(=O)OCc1ccccc1)c1ccccc1 (stereo partly drawn) [Example 38, (S)-{2-(1H-Imidazole-4-yl)-1-[[(2-phenyl-propylcarbamoyl)-methyl]-(4-trifluoromethyl-benzyl)-carbamoyl]-ethyl}-carbamic Acid Benzyl Ester] | 0.2 | – | 6.66
4 | 9.5 | 0.1 | CC(C)(CNC(=O)CN(Cc1cccnc1)C(=O)[C@H](Cc1c[nH]cn1)NC(=O)OCc1ccccc1)c1ccccc1 [Example 39, (S)-(2-(1H-Imidazole-4-yl)-1-{[(2-methyl-2-phenyl-propylcarbamoyl)-methyl]-pyridin-3-ylmethyl-carbamoyl}-ethyl)-carbamic Acid Benzyl Ester] | > 0.2 | – | < 6.00
5 | 0.12 | 0.001 | CC(C)(CNC(=O)CN(Cc1ccc(OCc2ccccn2)cc1)C(=O)[C@H](Cc1c[nH]cn1)NC(=O)OCc1ccccc1)c1ccccc1 [Example 40, (S)-(2-(1H-Imidazole-4-yl)-1-{[(2-methyl-2-phenyl-propylcarbamoyl)-methyl]-[4-(pyridin-2-ylmethoxy)-benzyl]-carbamoyl}-ethyl)-carbamic Acid Benzyl Ester] | 0.01 | – | 6.72
6 | 0.009 | 0.004 | CN(Cc1ccccc1)C(=O)N[C@@H](Cc1c[nH]cn1)C(=O)N(CC(=O)NCC(C)(C)c1ccccc1)Cc1ccc(OCc2ccccc2)cc1 [Example 41, (S)-2-(3-Benzyl-3-methyl-ureido)-N-(4-benzyloxy-benzyl)-3-(1H-imidazole-4-yl)-N-[(2-methyl-2-phenyl-propylcarbamoyl)-methyl]-propionamide] | 0.05 | – | 7.40
7 | 0.6 | 0.005 | CC(C)(CNC(=O)CN(Cc1ccccc1)C(=O)[C@H](Cc1c[nH]cn1)NC(=O)OCc1ccccc1)c1ccccc1 [Example 42, (S)-[1-{Benzyl-[(2-methyl-2-phenyl-propylcarbamoyl)-methyl]-carbamoyl}-2-(1H-imidazole-4-yl)-ethyl]-carbamic Acid Benzyl Ester] | 0.05 | – | 6.29

Row | SMILES | IC50 [1, 4] [µM] | IC50 [1, 5] [µM] | minimal effective concentration [2] [µM] | pIC50 [3] | pIC50 ([3]; 312 h)
8 | CC(CNC(=O)CN(Cc1ccc(OCc2ccncc2)cc1)C(=O)[C@H](Cc1c[nH]cn1)NC(=O)OCc1ccccc1)c1ccccc1 (stereo partly drawn) [Example 34, (S)-(2-(1H-Imidazole-4-yl)-1-{[(2-phenyl-propyl-carbamoyl)-methyl]-[4-(pyridin-4-ylmethoxy)-benzyl]-carbamoyl}-ethyl)-carbamic Acid Benzyl Aster] | 0.097 | 0.002 | 0.05 | 6.85 | –
9 | Cc1ccccc1CN(CC(=O)NCC(C)c1ccccc1)C(=O)[C@H](Cc1c[nH]cn1)NC(=O)OCc1ccccc1 (stereo partly drawn) [Example 43] | 3.9 | 0.038 | 0.2 | < 6.00 | –
